Test results reported in patent publication US20230293801A1, “Flow Electroporator Device For Therapeutic Targeting Of Circulating Tumor Cells During Hemodialysis” (ROSEMAN UNIVERSITY OF HEALTH SCIENCES, priority 2022, published 2023).

Key:
Type in all cases: cell-based
HeLa cells [1] = assay: Confocal fluorescence imaging of intracellular lipid droplets in cells incubated with blood plasma; conditions: blood plasma and 10 μM A922500 for 24 hrs
Method: (§1) FIGS. 7A-H show A922500, a DGAT1 inhibitor, reduces the viability of CTCs in blood plasma. […] Cell viability is assayed with crystal violet staining and visualized at low resolution (left column) and high resolution (right column). […] Error bars are standard deviation of triplicate experiments. Asterisk indicates p-value≤0.01 versus culturing in EMEM medium. […] Control HeLa cells cultured in EMEM medium is presented in the top panel. HeLa cells incubated with blood plasma for 24 hrs is presented in the bottom panel. […] Images are control untreated HeLa cells cultured with EMEM medium (first panel); HeLa cells cultured in EMEM medium and treated with 10 μM A922500, a small-molecule inhibitor of diacylglycerol O-acyltransferase 1 (DGAT1), for 24 hrs (second panel); HeLa cells incubated with blood plasma for 24 hrs (third panel); and HeLa cells incubated with blood plasma and 10 μM A922500 for 24 hrs (fourth panel). FIGS. 7F-H show viability of HeLa cells following incubation with blood plasma or blood plasma and A922500. Cell viability is assayed with crystal violet staining and visualized at low resolution (FIG. 7F) and high resolution (FIG. 7G). […] Error bars are standard deviation of triplicate experiments. Single asterisk indicates p-value≤0.01 versus untreated control HeLa cells cultured with EMEM. […]

HeLa cells [2] = assay: Cell viability by crystal violet staining after incubation with blood plasma and A922500; conditions: blood plasma and A922500, versus blood plasma alone for 24 hrs
Method: as §1

HeLa cells [3] = assay: Doxorubicin uptake by flow cytometry of doxorubicin fluorescence, with and without the flow electroporator device; conditions: HeLa cells in EMEM, 40 nM doxorubicin, 500 ml/min, 300 V/cm, 200 V/cm, normalized to no electroporation
Method: (§2) FIGS. 6A-G show drug delivery via electroporation. […] Cell cycle analysis is performed using flow cytometry and propidium iodide staining of chromosomal DNA. […] Error bars are standard deviation of triplicate experiments. Asterisk indicates p-value≤0.01 versus untreated control. FIGS. 6D-G show increased delivery of doxorubicin into HeLa cells via electroporation. […] Data are normalized to 1 for doxorubicin fluorescence of HeLa cells incubated with 40 nM doxorubicin without electroporation. Error bars are standard deviation of triplicate experiments. Asterisk indicates p-value≤0.01 versus no electroporation.
(§3) Another utility of the flow electroporator device is drug delivery during hemodialysis. Due to the unique cancer hallmarks of CTCs, many chemotherapeutic agents can be used for their selective targeting. […] Electroporation by the flow electroporator device enhanced doxorubicin uptake by CTCs by more than 4 fold (FIG. 6D-G). An advantage of drug delivery during hemodialysis is the subsequent removal of excess chemotherapeutic agents, thereby minimizing unnecessary side effects to cancer patients.

HeLa cells [4] = assay: Cell cycle analysis by flow cytometry and propidium iodide staining of chromosomal DNA; conditions: HeLa cells as mocked CTCs, 40 nM doxorubicin for 24 hrs
Method: as §2, §3

Question: Which “lipid droplet accumulation in CTCs incubated with blood plasma” value (HeLa cells [1]) does the source give for `O=C(Nc1ccccc1)Nc1ccc(-c2ccc(C(=O)[C@@H]3CCC[C@H]3C(=O)O)cc2)cc1` [A922500] here?
Answer: inhibited lipid droplet accumulation

Question: And the “viability of CTCs in blood plasma” value (HeLa cells [2])?
Answer: further reduced the viability

Question: Which results are given for `COc1cccc2c1C(=O)c1c(O)c3c(c(O)c1C2=O)C[C@@](O)(C(=O)CO)C[C@@H]3O[C@H]1C[C@H](N)[C@H](O)[C@H](C)O1` [doxorubicin]?
Answer: enhancement of doxorubicin uptake by CTCs by electroporation (HeLa cells [3]): more than 4 fold; effect on cell cycle of CTCs (HeLa cells [4]): cell cycle arrest
